Patent US20220153751A1, “BIFUNCTIONAL COMPOUNDS” (BioTheryX, Inc., priority 2018, published 2022)

What was measured:
Assay type in all cases: cell-based
IKAROS = molecular target: T1, IKAROS (Homo sapiens, UniProt Q13422+Q96SW2); assay: IKAROS degradation assay (Western blot, MV-4-11 cells); details: MV4-11, 6-8 h
T1 construct: endogenous in cells; host or cells: MV-4-11
Summary of the method: (§1)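 Immunoblot-based % degradation, scored A–D in 25% steps (D ≥75%). Compound exposure was 6-8 h.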

CK1α = molecular target: T2, CK1α (Homo sapiens, UniProt P48729+Q96SW2); assay: CK1α degradation assay (Western blot, MV-4-11 cells); details: MV4-11, 6-8 h
T2 construct: Whole cell extracts were prepared using RIPA buffer; endogenous in cells; host or cells: MV-4-11
Procedure: MV-4-11 cells were grown in RPMI 1640 media supplemented with 10% fetal bovine serum, streptomycin and penicillin.
Cells were cultured at approximately 10^6 cells per mL and incubated in DMSO or the indicated compound for 6-8 h. Whole cell extracts were prepared using RIPA buffer according to manufacturer's protocol (Pierce). Briefly, 3×10^6 cells were washed once in PBS, the cell pellets were resuspended in RIPA buffer and allowed to incubate for 15 minutes on ice. Cells debris was removed by centrifugation and the cleared whole cell lysates were transferred to new tubes for further analysis.
For Western blot analysis, whole cell protein extracts were separated on 4-12% SDS-polyacrylamide gels, transferred to nitrocellulose and probed with the indicated primary antibodies. Membranes were subsequently washed and probed with the appropriate IRDye secondary antibodies (LI-COR). The signal was detected using the Odyssey Imaging System (LI-COR).
The following antibodies were used in these studies: Anti-eRF3/GSPT1: Abcam, ab126090 (Cambridge, Mass.); Anti-Ikaros: Abcam, ab191394 (Cambridge, Mass.); Anti-CK1α: Abcam, ab108296 (Cambridge, Mass.); Anti-CDK9: Santa Cruz Biotechnology, sc13130 (Dallas, Tex.); Anti-CDK16: Millipore Sigma, HPA001366 (St. Louis, Mo.); 3-actin (8H10comD10) mouse monoclonal antibody: Cell Signaling Technology, #3700 (Danvers, Mass.); IRDye 680RD Goat anti-rabbit antibody: LI-COR, 926-68071 (Lincoln, Nebr.); IRDye 800CW Goat anti-mouse antibody: LI-COR, 926-32210 (Lincoln, Nebr.).
CDK9 activities are shown in Table 4 at two different concentrations. CDK16 activities are shown in Table 5 at two different concentrations. In each of Tables 1-5, the % degradation values are reported as “A”, “B”, “C”, or “D”. “A” represents a % degradation value of less than 25% (value <25%). “B” represents a % degradation value of equal to or more than 25% and less than 50% (25%≤value<50%). “C” represents a % degradation value of equal to or more than 50% and less than 75% (50%≤value<75%). “D” represents a % degradation value of equal to or more than 75% (value ≥75%).

GSPT1 = molecular target: T3, GSPT1 (Homo sapiens, UniProt P15170+Q96SW2); assay: GSPT1 degradation assay (Western blot, MV-4-11 cells); details: MV4-11, 6-8 h
T3 construct: Whole cell extracts were prepared using RIPA buffer; endogenous in cells; host or cells: MV-4-11
Summary of the method: as §1

IL-1β = IL-1β inhibition assay, LPS-induced PBMCs / CD14+ monocytes (Meso Scale); details: 1 h pretreatment, 100 ng/mL LPS 18-24 h
Summary of the method: (§2)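 Thawed human PBMCs or CD14+ mobilized peripheral blood monocytes, 200,000 cells/well in RPMI-1640/10% FBS, pretreated with compound or DMSO 1 h, then stimulated with 100 ng/mL LPS for 18-24 h. Supernatant cytokine measured by Meso Scale; % inhibition binned A–D (<50%, 50–70%, 70–90%, ≥90%), fold-change binned A–D (≤0.1, ≤0.5, ≤1, >1).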

IL-6 = IL-6 inhibition assay, LPS-induced PBMCs / CD14+ monocytes (Meso Scale); details: 1 h pretreatment, 100 ng/mL LPS 18-24 h
Summary of the method: as §2

TNF-α = TNF-α inhibition assay, LPS-induced PBMCs / CD14+ monocytes (Meso Scale); details: 1 h pretreatment, 100 ng/mL LPS 18-24 h
Summary of the method: as §2

IL-2 = IL-2 fold-change assay, anti-CD3 stimulated PBMCs (Mesoscale); details: PBMC, PBMCs on anti-human CD3, 24 h, fold difference from the DMSO control
Procedure: For the IL-2 analysis, 96 well plates were precoated with 1 μg/mL anti-human CD3 antibody (OK3, eBioscience Inc., San Diego, Calif.). After washing with PBS, the indicated compound was added (50 μL/well) followed by PBMCs diluted at 3-4 million cells/mL (150 μL/well). Plates were incubated for 24 h and the supernatants collected for Mesoscale IL-2 analysis. IL-2 activity is measured as fold difference from the DMSO control.
In Table 6, the % inhibition values are reported as “A”, “B”, “C”, or “D”. “A” represents a % inhibition value of less than 50% (value <50%). “B” represents a % inhibition value of equal to or more than 50% and less than 70% (50%≤value<70%). “C” represents a % inhibition value of equal to or more than 70% and less than 90% (70%≤value<90%). “D” represents a % inhibition value of equal or more than 90% (value ≥90%). In Table 7, the fold-change values are reported as “A”, “B”, “C”, or “D”. “A” represents a fold-change value of equal to or less than 0.1 (value ≤0.1). “B” represents a fold-change value of more than 0.1 and equal to or less than 0.5 (0.1<value≤0.5). “C” represents a fold-change value of more than 0.5 and equal to or less than 1 (0.5<value≤1). “D” represents a fold-change value of more than 1 (value >1).

MOLM-13 cells = assay: MOLM-13 cell viability assay (CellTiter-Glo); details: Homo sapiens, MOLM-13, 72 h, 3 days, read-out: MOLM-13 Cell Viability % DMSO at 1 μM
Summary of the method: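 MOLM-13 cells at 2500 cells/well were exposed to compound for 3 days at 37 °C. Viability was read by CellTiter-Glo luminescence and expressed as % of DMSO control, binned A (<50%), B (50–<70%), C (70–<90%) or D (≥90%).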

T1 sequence (Q13422 whole entry): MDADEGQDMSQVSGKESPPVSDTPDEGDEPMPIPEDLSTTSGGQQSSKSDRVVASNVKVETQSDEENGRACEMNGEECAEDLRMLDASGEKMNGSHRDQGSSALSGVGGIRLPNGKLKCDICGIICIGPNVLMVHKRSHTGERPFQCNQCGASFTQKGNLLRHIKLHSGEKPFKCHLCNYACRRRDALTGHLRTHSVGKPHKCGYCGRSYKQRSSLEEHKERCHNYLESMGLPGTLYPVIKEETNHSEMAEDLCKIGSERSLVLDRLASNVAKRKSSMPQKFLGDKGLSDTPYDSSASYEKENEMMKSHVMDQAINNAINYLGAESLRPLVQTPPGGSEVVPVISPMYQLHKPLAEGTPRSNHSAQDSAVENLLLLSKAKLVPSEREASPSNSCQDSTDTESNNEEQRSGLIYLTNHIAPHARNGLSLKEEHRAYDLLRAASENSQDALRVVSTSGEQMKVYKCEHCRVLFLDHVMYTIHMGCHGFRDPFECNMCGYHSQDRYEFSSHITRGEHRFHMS
T1 sequence (Q96SW2 whole entry): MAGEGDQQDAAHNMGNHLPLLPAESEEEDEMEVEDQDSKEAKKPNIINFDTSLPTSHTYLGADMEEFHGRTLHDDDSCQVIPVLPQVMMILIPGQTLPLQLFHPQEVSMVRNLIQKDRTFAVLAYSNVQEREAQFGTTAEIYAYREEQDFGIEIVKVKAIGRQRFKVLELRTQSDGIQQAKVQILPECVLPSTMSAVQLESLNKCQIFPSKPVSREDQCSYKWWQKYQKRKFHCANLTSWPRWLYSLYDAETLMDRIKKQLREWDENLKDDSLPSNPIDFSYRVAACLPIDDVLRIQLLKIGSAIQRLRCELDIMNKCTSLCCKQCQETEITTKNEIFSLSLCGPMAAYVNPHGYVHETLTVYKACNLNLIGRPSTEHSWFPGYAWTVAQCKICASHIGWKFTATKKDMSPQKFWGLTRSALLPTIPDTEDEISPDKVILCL
T1 sequence (Q16531 whole entry partner): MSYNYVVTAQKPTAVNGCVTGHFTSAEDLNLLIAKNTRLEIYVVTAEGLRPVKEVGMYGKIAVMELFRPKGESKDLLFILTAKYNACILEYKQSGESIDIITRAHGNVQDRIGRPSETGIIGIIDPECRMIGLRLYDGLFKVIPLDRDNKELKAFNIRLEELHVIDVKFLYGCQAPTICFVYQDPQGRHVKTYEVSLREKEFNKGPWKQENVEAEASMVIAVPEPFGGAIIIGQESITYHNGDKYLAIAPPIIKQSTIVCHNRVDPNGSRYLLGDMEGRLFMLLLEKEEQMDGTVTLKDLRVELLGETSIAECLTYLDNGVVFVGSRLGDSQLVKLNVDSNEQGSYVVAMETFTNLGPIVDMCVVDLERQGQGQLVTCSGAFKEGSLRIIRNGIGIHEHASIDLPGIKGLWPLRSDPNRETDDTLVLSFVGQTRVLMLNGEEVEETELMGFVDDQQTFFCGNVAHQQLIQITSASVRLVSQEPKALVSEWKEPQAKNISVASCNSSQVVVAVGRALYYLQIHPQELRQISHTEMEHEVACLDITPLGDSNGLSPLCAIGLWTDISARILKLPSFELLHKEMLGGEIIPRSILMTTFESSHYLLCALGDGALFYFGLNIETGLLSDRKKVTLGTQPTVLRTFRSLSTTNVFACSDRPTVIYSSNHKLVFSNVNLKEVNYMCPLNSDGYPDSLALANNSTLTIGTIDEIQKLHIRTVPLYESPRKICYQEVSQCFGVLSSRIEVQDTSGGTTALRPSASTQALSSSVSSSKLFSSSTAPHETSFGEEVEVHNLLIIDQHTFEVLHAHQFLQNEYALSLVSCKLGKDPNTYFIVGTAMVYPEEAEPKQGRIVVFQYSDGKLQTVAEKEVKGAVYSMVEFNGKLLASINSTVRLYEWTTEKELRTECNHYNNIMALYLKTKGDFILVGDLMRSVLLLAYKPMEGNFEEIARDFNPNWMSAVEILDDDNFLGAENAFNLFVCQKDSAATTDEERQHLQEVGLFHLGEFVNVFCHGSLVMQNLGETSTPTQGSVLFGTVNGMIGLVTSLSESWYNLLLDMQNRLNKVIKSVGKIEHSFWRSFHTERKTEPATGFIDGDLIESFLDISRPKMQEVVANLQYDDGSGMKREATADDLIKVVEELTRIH
T2 sequence (P48729 whole entry): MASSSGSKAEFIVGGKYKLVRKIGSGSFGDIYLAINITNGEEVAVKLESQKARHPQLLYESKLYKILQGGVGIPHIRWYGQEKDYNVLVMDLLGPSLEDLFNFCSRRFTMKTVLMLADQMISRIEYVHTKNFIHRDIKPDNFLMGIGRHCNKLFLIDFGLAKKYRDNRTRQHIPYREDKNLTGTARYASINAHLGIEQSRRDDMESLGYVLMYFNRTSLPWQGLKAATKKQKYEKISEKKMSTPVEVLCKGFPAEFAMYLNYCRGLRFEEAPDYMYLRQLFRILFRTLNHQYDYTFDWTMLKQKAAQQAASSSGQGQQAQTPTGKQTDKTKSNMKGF
T2 sequence (Q96SW2 whole entry): as the sequence (Q96SW2 whole entry) above
T2 sequence (Q16531 whole entry partner): as the sequence (Q16531 whole entry partner) above
T3 sequence (P15170 whole entry): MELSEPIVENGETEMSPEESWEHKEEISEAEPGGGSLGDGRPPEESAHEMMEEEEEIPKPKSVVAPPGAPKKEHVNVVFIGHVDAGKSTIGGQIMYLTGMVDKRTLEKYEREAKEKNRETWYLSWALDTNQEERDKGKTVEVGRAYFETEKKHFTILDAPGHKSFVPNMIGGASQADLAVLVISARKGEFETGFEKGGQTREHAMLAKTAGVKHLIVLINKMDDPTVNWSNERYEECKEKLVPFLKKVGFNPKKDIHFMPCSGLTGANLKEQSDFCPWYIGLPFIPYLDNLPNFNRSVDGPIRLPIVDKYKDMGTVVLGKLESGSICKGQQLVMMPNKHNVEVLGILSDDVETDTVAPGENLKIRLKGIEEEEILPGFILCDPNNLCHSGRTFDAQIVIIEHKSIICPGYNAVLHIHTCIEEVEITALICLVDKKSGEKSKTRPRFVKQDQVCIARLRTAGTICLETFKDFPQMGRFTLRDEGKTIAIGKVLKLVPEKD
T3 sequence (Q96SW2 whole entry): as the sequence (Q96SW2 whole entry) above
T3 sequence (Q16531 whole entry partner): as the sequence (Q16531 whole entry partner) above

| Structure (SMILES) | Dmax at 1 µM (IKAROS) | Dmax at 1 µM (CK1α) | Dmax at 1 µM (GSPT1) | inhibition at 1 µM (IL-1β) | inhibition at 1 µM (IL-6) | inhibition at 1 µM (TNF-α) | fold induction at 1 µM (IL-2) | viability at 1 µM (MOLM-13 cells) |
| --- | --- | --- | --- | --- | --- | --- | --- | --- |
| CC(C)(C)c1cnc(CSc2cnc(NC(=O)C3CCN(CC(=O)NCCCCCCCNC(=O)NCc4cc5c(s4)C(=O)N(C4CCC(=O)NC4=O)C5)CC3)s2)o1 (stereo not shown) [Compound 18, N-(5-(((5-(tert-butyl)oxazol-2-yl)methyl)thio)thiazol-2-yl)-1-(2-((7-(3-((5-(2,6-dioxopiperidin-3-yl)-6-oxo-5,6-dihydro-4H-thieno[2,3-c]pyrrol-2-yl)methyl)ureido)heptyl)amino)-2-oxoethyl)piperidine-4-carboxamide] | 25 to 50% | 50 to 75% | 50 to 75% | > 90% | > 90% | 70 to 90% | ≤ 0.1 | > 90% |
| Cn1ncc(-c2nc(N[C@H]3CC[C@H](NCC(=O)NCCCCNCC(=O)NCc4scc5c4C(=O)N(C4CCC(=O)NC4=O)C5=O)CC3)ncc2Cl)c1CC1CC1 (stereo partly shown) [Compound 51, 2-(((1r,4r)-4-((5-chloro-4-(5-(cyclopropylmethyl)-1-methyl-1H-pyrazol-4-yl)pyrimidin-2-yl)amino)cyclohexyl)amino)-N-(4-((2-(((5-(2,6-dioxopiperidin-3-yl)-4,6-dioxo-5,6-dihydro-4H-thieno[3,4-c]pyrrol-1-yl)methyl)amino)-2-oxoethyl)amino)butyl)acetamide] | 50 to 75% | 25 to 50% | 25 to 50% | > 90% | > 90% | > 90% | ≤ 0.1 | > 90% |
| Cn1ncc(-c2ncnc(N[C@H]3CC[C@H](NCCCCCCCCNC(=O)NCc4cc5c(s4)C(=O)N(C4CCC(=O)NC4=O)C5)CC3)n2)c1CC1CC1 (stereo partly shown) [Compound 65, 1-(8-(((1r,4r)-4-((4-(5-(cyclopropylmethyl)-1-methyl-1H-pyrazol-4-yl)-1,3,5-triazin-2-yl)amino)cyclohexyl)amino)octyl)-3-((5-(2,6-dioxopiperidin-3-yl)-6-oxo-5,6-dihydro-4H-thieno[2,3-c]pyrrol-2-yl)methyl)urea] |  | 50 to 75% | 25 to 50% | < 50% | < 50% | < 50% | 0.5 to 1 | < 50% |
| Cn1ncc(-c2nc(N[C@H]3CC[C@H](NC(=O)CCCCCCNCC(=O)Nc4cccc5c4CN([C@H]4CCCC(=O)NC4=O)C5=O)CC3)ncc2Cl)c1CC1CC1 [Compound 9, N-((1r,4r)-4-((5-chloro-4-(5-(cyclopropylmethyl)-1-methyl-1H-pyrazol-4-yl)pyrimidin-2-yl)amino)cyclohexyl)-7-((2-((2-((S)-2,7-dioxoazepan-3-yl)-1-oxoisoindolin-4-yl)amino)-2-oxoethyl)amino)heptanamide] |  | < 25% | 50 to 75% | 50 to 70% | < 50% | 50 to 70% | 0.5 to 1 | < 50% |
| CC(C)(C)c1cnc(CSc2cnc(NC(=O)C3CCN(CC(=O)NCCOCCNC(=O)NCc4cc5c(s4)C(=O)N(C4CCC(=O)NC4=O)C5)CC3)s2)o1 (stereo not shown) [Compound 3, 3-{8-Oxo-3-[(3-{2-[2-(2-{4-[(5-{[5-(tert-butyl)-1,3-oxazol-2-yl]methylthio}-1,3-thiazol-2-ylamino)carbonyl]-1-piperidyl}acetylamino)ethoxy]ethyl}ureido)methyl]-2-thia-7-azabicyclo[3.3.0]octa-1(5),3-dien-7-yl}-2,6-piperidinedione] |  | 25 to 50% |  | > 90% | > 90% | 70 to 90% | 0.1 to 0.5 | > 90% |
| Cn1ncc(-c2nc(N[C@H]3CC[C@H](NCCOCCOCCNCc4ccc(OCc5scc6c5CN([C@H]5CCC(=O)NC5=O)C6=O)cc4)CC3)ncc2Cl)c1CC1CC1 [Compound 67, (S)-3-(1-((4-(((2-(2-(2-(((1r,4r)-4-((5-chloro-4-(5-(cyclopropylmethyl)-1-methyl-1H-pyrazol-4-yl)pyrimidin-2-yl)amino)cyclohexyl)amino)ethoxy)ethoxy)ethyl)amino)methyl)phenoxy)methyl)-4-oxo-4H-thieno[3,4-c]pyrrol-5(6H)-yl)piperidine-2,6-dione] | 25 to 50% | 25 to 50% | 50 to 75% | > 90% | > 90% | > 90% | 0.5 to 1 | > 90% |
| Cn1ncc(-c2nc(N[C@H]3CC[C@H](NCC(=O)NCCOCCOCCOCCNc4cccc5c4CN(C4CCC(=O)NC4=O)C5=O)CC3)ncc2F)c1CC1CC1 (stereo partly shown) [Compound 56, 2-(((1r,4r)-4-((4-(5-(cyclopropylmethyl)-1-methyl-1H-pyrazol-4-yl)-5-fluoropyrimidin-2-yl)amino)cyclohexyl)amino)-N-(2-(2-(2-(2-((2-(2,6-dioxopiperidin-3-yl)-1-oxoisoindolin-4-yl)amino)ethoxy)ethoxy)ethoxy)ethyl)acetamide] | 50 to 75% | 25 to 50% |  | > 90% | > 90% | > 90% | ≤ 0.1 | > 90% |
| CC(C)(C)c1cnc(CSc2cnc(NC(=O)C3CCN(CCOCCOCCOCCOCCNCC(=O)NCc4scc5c4CN(C4CCC(=O)NC4=O)C5=O)CC3)s2)o1 (stereo not shown) [Compound 58, N-(5-(((5-(tert-butyl)oxazol-2-yl)methyl)thio)thiazol-2-yl)-1-(1-(5-(2,6-dioxopiperidin-3-yl)-4-oxo-5,6-dihydro-4H-thieno[3,4-c]pyrrol-1-yl)-3-oxo-8,11,14,17-tetraoxa-2,5-diazanonadecan-19-yl)piperidine-4-carboxamide] | < 25% | ≥ 75% |  | > 90% | 70 to 90% | < 50% | 0.5 to 1 | 50 to 70% |
